Data set [1] in a line: Solubility in benzene quantified by 1H NMR of saturated C6D6 solutions. It counts as physicochemical. To be noted: 1H NMR against ferrocene internal standard. How it is done:
The absence of mixed-metal dimer formation prompted a search for conditions where the dimerization of Nd(TriNOx)THF could be exploited for solubility differences between the Nd and Dy species. […] These solubilities were quantified by ^1H NMR spectroscopy, where saturated C6D6 solutions of the complexes were prepared and measured against a ferrocene internal standard.

Data set [2] can be described thus: Air stability observation. As to conditions: solid and solution states. It counts as physicochemical.

As to “Dy[(2-(^tBuNOH)CH2—C6H4)3N]THF [Dy(TriNOx)THF]”, in data set [1], the solubility in benzene worked out at 1.2 mM.
`CC(C)(C)N(O)c1ccccc1CN(Cc1ccccc1N(O)C(C)(C)C)Cc1ccccc1N(O)C(C)(C)C` [H3TriNOx, tris(2-tert-butylhydroxylaminato)benzylamine]: the air stability entry in data set [2] was “air stable in both the solid and solution states”.
“Nd[(2-(^tBuNOH)CH2—C6H4)3N]THF [Nd(TriNOx)THF]” registered a solubility in benzene in data set [1] of 60 mM.

(Values after patent US10704122B2, “Simple chemical method for the separation of rare earth metals” (THE TRUSTEES OF THE UNIVERSITY OF PENNSYLVANIA, priority 2014, dated 2020).)
